According to patent US12091426B2, “Bifunctional degraders of hematopoietic progenitor kinase and therapeutic uses thereof” (Nurix Therapeutics, Inc., priority 2021, dated 2024):

Biological target: T1, HPK1 (Homo sapiens, UniProt Q92918)
T1 construct: A HiBiT tag was introduced by CRISPR on the N terminus of HPK1 in Jurkat cells; host or cells: Jurkat cells (ATCC TIB-152), monoclonal line with CRISPR knock-in of HiBiT at the endogenous HPK1 locus
Assay: HPK1 Cellular HiBit Degradation Assay
Assay type: cell-based
Conditions: HiBiT HPK1 Jurkat cells, 24 hrs; for DC50: concentration at which 50% of HPK1 was remaining, read-out: DC50 Category; for Dmax: Jurkat, maximum degradation vs DMSO vehicle control, read-out: Dmax Category
Description: HPK1 Cellular HiBit Degradation Assay
A HiBiT tag was introduced by CRISPR on the N terminus of HPK1 in Jurkat cells (ATCC® TIB-152) to allow quantitation of HPK1 protein levels in a monoclonal human cell line. Cells were plated at 1×10^6 cells/mL, 30 uL/well (3×10^4 cells/well) in complete RPMI 1640 (10% heat inactivated FBS, 1% L-glutamine) in 384-well assay plates (Corning, cat. no. 3570). HPK1 chimeric targeting molecules (CTMs) were added in an 11 point dilution series (11-point, 3.16-fold) with a final assay concentration range of 10 uM to 0.1 nM. The parental Jurkat cell line, with no HiBiT insertion, was included in the assay as a background control. Cell treated with a DMSO vehicle control was used to determine the maximum signal defining 100% HPK1 in the cell. Cells were incubated for 24 hrs at 37° C./5% CO2. Following incubation, 30 uL of complete Nano-Glo HiBiT Lytic Detection Reagent (Promega cat. no. N3040) was added. Cells were incubated for 10 min at room temperature and luminescence was read on an EnVision plate reader (Perkin Elmer, 0.1 sec per well). Viability was assessed in the same plate using Cell Titer Fluor (Promega) and read on an EnVision plate reader to ensure results were not the effect of cytotoxicity. Percent HPK1 remaining per sample was calculated as follows:
[formula] % HPK1 remaining values were plotted as a function of compound concentration and curves were fit using the Prism (GraphPad) equation “log(inhibitor) vs response−Variable slope (four parameters)”. Dmax values were calculated by identifying the lowest % remaining and subtracting from 100. DC50 values were determined by extrapolating from the curve the concentration at which 50% of HPK1 was remaining based on the DMSO control.
HiBiT HPK1 Jurkat cell lines were used to evaluate the total protein levels of HPK1 in a robust human cellular high throughput format. The level of HPK1 remaining following treatment with HPK1 CTMs is reported as Dmax (maximum degradation) achieved at 24 hours when compared to vehicle treated controls. […] These decreases were not a result of cytotoxicity measured by a viability assessment.

T1 sequence (Q92918 whole entry): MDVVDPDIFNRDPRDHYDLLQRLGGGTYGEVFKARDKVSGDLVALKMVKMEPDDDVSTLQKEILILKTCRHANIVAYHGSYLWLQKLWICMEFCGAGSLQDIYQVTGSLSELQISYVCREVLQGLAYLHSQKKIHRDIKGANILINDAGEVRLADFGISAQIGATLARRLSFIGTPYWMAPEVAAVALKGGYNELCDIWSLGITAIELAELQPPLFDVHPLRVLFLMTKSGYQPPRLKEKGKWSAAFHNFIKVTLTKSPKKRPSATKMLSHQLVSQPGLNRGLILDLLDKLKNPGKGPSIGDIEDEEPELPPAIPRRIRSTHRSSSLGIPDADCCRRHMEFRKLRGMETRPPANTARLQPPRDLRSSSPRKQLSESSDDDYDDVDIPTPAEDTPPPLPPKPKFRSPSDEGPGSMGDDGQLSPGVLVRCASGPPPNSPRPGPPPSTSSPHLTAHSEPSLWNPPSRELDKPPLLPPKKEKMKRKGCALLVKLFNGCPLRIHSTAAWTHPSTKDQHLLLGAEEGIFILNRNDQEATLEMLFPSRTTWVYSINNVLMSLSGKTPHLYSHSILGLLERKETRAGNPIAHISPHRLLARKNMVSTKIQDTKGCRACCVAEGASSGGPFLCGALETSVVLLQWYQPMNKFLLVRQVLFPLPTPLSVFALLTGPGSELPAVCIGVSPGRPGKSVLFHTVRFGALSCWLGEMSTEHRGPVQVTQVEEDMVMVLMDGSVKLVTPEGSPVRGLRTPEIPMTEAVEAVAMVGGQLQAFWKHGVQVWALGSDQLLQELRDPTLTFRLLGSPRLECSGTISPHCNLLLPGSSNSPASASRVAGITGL

Row | SMILES | DC50 [nM] | Dmax [%]
1 | CC(C)n1cnc2cc(-c3ccc4c(c3)N([C@H]3C[C@@H](N5CCCCC5)C3)C(=O)C43CCN(C(=O)[C@H]4CC[C@@H](C(=O)N5CCN(c6ccc7c(c6)C(=O)N(C6CCC(=O)NC6=O)C7=O)CC5)CC4)CC3)nc(Nc3ccccc3F)c21 (mixture of isomers) [Example 31, 2-[(3RS)-2,6-dioxopiperidin-3-yl]-5-{4-[(1S,4s)-4-[(6-{4-[(2-fluorophenyl)amino]-3-(propan-2-yl)-3H-imidazo[4,5-c]pyridin-6-yl}-2-oxo-1-[(1S,3S)-3-(piperidin-1-yl)cyclobutyl]-1,2-dihydrospiro[indole-3,4′-piperidin]-1′-yl)carbonyl]cyclohexanecarbonyl]piperazin-1-yl}-2,3-dihydro-1H-isoindole-1,3-dione] | 100 to 500 | 70 to 85
2 | CC(C)n1cnc2cc(-c3ccc4c(c3)N([C@H]3C[C@@H](N5CCCCC5)C3)C(=O)C43CCN(C(=O)[C@H]4CCN(C(=O)C5CCN(c6ccc(C7CCC(=O)NC7=O)cn6)CC5)C4)CC3)nc(NC3CC3)c21 (mixture of isomers) [Example 32, (3RS)-3-(6-{4-[(3S)-3-({6-[4-(cyclopropylamino)-3-(propan-2-yl)-3H-imidazo[4,5-c]pyridin-6-yl]-2-oxo-1-[(1S,3S)-3-(piperidin-1-yl)cyclobutyl]-1,2-dihydrospiro[indole-3,4′-piperidin]-1′-yl}carbonyl)pyrrolidine-1-carbonyl]piperidin-1-yl}pyridin-3-yl)piperidine-2,6-dione] | 100 to 500 | 50 to 70
3 | CC(C)n1cnc2cc(-c3ccc4c(c3)N([C@H]3C[C@@H](N5CCCCC5)C3)C(=O)C43CCN(C(=O)[C@H]4CCN(C(=O)C5CCN(c6ccc(C7CCC(=O)NC7=O)cn6)CC5)C4)CC3)nc(Nc3ccccc3F)c21 (mixture of isomers) [Example 33, (3RS)-3-(6-{4-[(3S)-3-[(6-{4-[(2-fluorophenyl)amino]-3-(propan-2-yl)-3H-imidazo[4,5-c]pyridin-6-yl}-2-oxo-1-[(1S,3S)-3-(piperidin-1-yl)cyclobutyl]-1,2-dihydrospiro[indole-3,4′-piperidin]-1′-yl)carbonyl]pyrrolidine-1-carbonyl]piperidin-1-yl}pyridin-3-yl)piperidine-2,6-dione] | < 100 | 70 to 85
4 | CC(C)n1cnc2cc(-c3ccc4c(c3)N([C@H]3C[C@@H](N5CCCCC5)C3)C(=O)C43CCN(C(=O)[C@H]4CCN(C(=O)C5CCN(c6ccc(C7CCC(=O)NC7=O)cn6)CC5)C4)CC3)nc(Nc3ccncc3F)c21 (mixture of isomers) [Example 34, (3RS)-3-(6-{4-[(3S)-3-[(6-{4-[(3-fluoropyridin-4-yl)amino]-3-(propan-2-yl)-3H-imidazo[4,5-c]pyridin-6-yl}-2-oxo-1-[(1S,3S)-3-(piperidin-1-yl)cyclobutyl]-1,2-dihydrospiro[indole-3,4′-piperidin]-1′-yl)carbonyl]pyrrolidine-1-carbonyl]piperidin-1-yl}pyridin-3-yl)piperidine-2,6-dione] | 100 to 500 | 50 to 70
5 | CC(C)n1cnc2cc(-c3ccc4c(c3)N([C@H]3C[C@@H](N5CCCCC5)C3)C(=O)C43CCN(C(=O)C[C@@H]4CCN(C(=O)[C@H]5CC[C@@H](Nc6cccc7c6C(=O)N(C6CCC(=O)NC6=O)C7=O)CC5)C4)CC3)nc(NC3CC3)c21 (mixture of isomers) [Example 35, 2-[(3RS)-2,6-dioxopiperidin-3-yl]-4-{[(1R,4R)-4-[(3S)-3-(2-{6-[4-(cyclopropylamino)-3-(propan-2-yl)-3H-imidazo[4,5-c]pyridin-6-yl]-2-oxo-1-[(1S,3S)-3-(piperidin-1-yl)cyclobutyl]-1,2-dihydrospiro[indole-3,4′-piperidin]-1′-yl}-2-oxoethyl)pyrrolidine-1-carbonyl]cyclohexyl]amino}-2,3-dihydro-1H-isoindole-1,3-dione] | 500 to 1000 | 50 to 70
6 | Cc1cc(F)c(Nc2nc(-c3ccc4c(c3)N([C@H]3C[C@@H](N5CCCCC5)C3)C(=O)C43CCN(C(=O)C4=CCN(C(=O)[C@H]5CC[C@H](Nc6cccc7c6C(=O)N(C6CCC(=O)NC6=O)C7=O)CC5)CC4)CC3)cc3ncn(C(C)C)c23)cc1C(=O)NC(C)C (mixture of isomers) [Example 36, 4-fluoro-2-methyl-5-{[6-(2-oxo-1′-{1-[(1R,4R)-4-({2-[(3RS)-2,6-dioxopiperidin-3-yl]-1,3-dioxo-2,3-dihydro-1H-isoindol-4-yl}amino)cyclohexanecarbonyl]-1,2,3,6-tetrahydropyridine-4-carbonyl}-1-[(1S,3S)-3-(piperidin-1-yl)cyclobutyl]-1,2-dihydrospiro[indole-3,4′-piperidin]-6-yl)-3-(propan-2-yl)-3H-imidazo[4,5-c]pyridin-4-yl]amino}-N-(propan-2-yl)benzamide] | 100 to 500 | 50 to 70
7 | Cc1cc(F)c(Nc2nc(-c3ccc4c(c3)N([C@H]3C[C@@H](N5CCCCC5)C3)C(=O)C43CCN(C(=O)C4=CCN(C(=O)C5CCN(c6ccc7c(c6)C(=O)N(C6CCC(=O)NC6=O)C7=O)CC5)CC4)CC3)cc3ncn(C(C)C)c23)cc1C(=O)NC(C)C (mixture of isomers) [Example 37, 5-[(6-{1′-[1-(1-{2-[(3RS)-2,6-dioxopiperidin-3-yl]-1,3-dioxo-2,3-dihydro-1H-isoindol-5-yl}piperidine-4-carbonyl)-1,2,3,6-tetrahydropyridine-4-carbonyl]-2-oxo-1-[(1S,3S)-3-(piperidin-1-yl)cyclobutyl]-1,2-dihydrospiro[indole-3,4′-piperidin]-6-yl}-3-(propan-2-yl)-3H-imidazo[4,5-c]pyridin-4-yl)amino]-4-fluoro-2-methyl-N-(propan-2-yl)benzamide] | 100 to 500 | 50 to 70
8 | CC(C)n1cnc2cc(-c3ccc4c(c3)N([C@H]3C[C@@H](N5CCCCC5)C3)C(=O)C43CCN(C(=O)C4C5CN(C(=O)C6CCN(c7ccc(C8CCC(=O)NC8=O)cn7)CC6)CC54)CC3)nc(NC3CC3)c21 (mixture of isomers) [Example 38, (3RS)-3-(6-{4-[6-({6-[4-(cyclopropylamino)-3-(propan-2-yl)-3H-imidazo[4,5-c]pyridin-6-yl]-2-oxo-1-[(1S,3S)-3-(piperidin-1-yl)cyclobutyl]-1,2-dihydrospiro[indole-3,4′-piperidin]-1′-yl}carbonyl)-3-azabicyclo[3.1.0]hexane-3-carbonyl]piperidin-1-yl}pyridin-3-yl)piperidine-2,6-dione] | 100 to 500 | 50 to 70
9 | CC(C)n1cnc2cc(-c3ccc4c(c3)N([C@H]3C[C@@H](N5CCCCC5)C3)C(=O)C43CCN(C(=O)C4C5CN(C(=O)C6CCN(c7ccc(C8CCC(=O)NC8=O)cn7)CC6)CC54)CC3)nc(Nc3ccccc3F)c21 (mixture of isomers) [Example 39, (3RS)-3-[6-(4-{6-[(6-{4-[(2-fluorophenyl)amino]-3-(propan-2-yl)-3H-imidazo[4,5-c]pyridin-6-yl}-2-oxo-1-[(1S,3S)-3-(piperidin-1-yl)cyclobutyl]-1,2-dihydrospiro[indole-3,4′-piperidin]-1′-yl)carbonyl]-3-azabicyclo[3.1.0]hexane-3-carbonyl}piperidin-1-yl)pyridin-3-yl]piperidine-2,6-dione] | < 100 | > 85
10 | CC(C)n1cnc2cc(-c3ccc4c(c3)N([C@H]3C[C@@H](N5CCCCC5)C3)C(=O)C43CCN(C(=O)c4ccc(C(=O)N5CCN(c6ccc(C7CCC(=O)NC7=O)cc6)CC5)cc4)CC3)nc(Nc3ccccc3F)c21 (mixture of isomers) [Example 40, (3RS)-3-[4-(4-{4-[(6-{4-[(2-fluorophenyl)amino]-3-(propan-2-yl)-3H-imidazo[4,5-c]pyridin-6-yl}-2-oxo-1-[(1S,3S)-3-(piperidin-1-yl)cyclobutyl]-1,2-dihydrospiro[indole-3,4′-piperidin]-1′-yl)carbonyl]benzoyl}piperazin-1-yl)phenyl]piperidine-2,6-dione] | 500 to 1000 | 50 to 70
11 | CC(C)n1cnc2cc(-c3ccc4c(c3)N([C@H]3C[C@@H](N5CCCCC5)C3)C(=O)C43CCN(C(=O)c4ccc(C(=O)N5CCN(c6ccc7c(c6)C(=O)N(C6CCC(=O)NC6=O)C7=O)CC5)cc4)CC3)nc(Nc3ccccc3F)c21 (mixture of isomers) [Example 41, 2-[(3RS)-2,6-dioxopiperidin-3-yl]-5-(4-{4-[(6-{4-[(2-fluorophenyl)amino]-3-(propan-2-yl)-3H-imidazo[4,5-c]pyridin-6-yl}-2-oxo-1-[(1S,3S)-3-(piperidin-1-yl)cyclobutyl]-1,2-dihydrospiro[indole-3,4′-piperidin]-1′-yl)carbonyl]benzoyl}piperazin-1-yl)-2,3-dihydro-1H-isoindole-1,3-dione] | 100 to 500 | > 85
